Results taken from ChEMBL document CHEMBL1201862, “PubChem BioAssay data set” (2004).
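Cultured in 96-well plates, cells were exposed to test compound for 48 hours across five concentrations. GI50 is the concentration that inhibits growth by half.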 Activity calls are given as the source filed them. Cut-off read from the data, not from the text of the source: active = GI50 up to about 1.1 µM and inactive = higher.

How the values were obtained:
Experiment in all cases: NCI anticancer screen, dose series, 48 h
A549 = system: A549
CAKI-1 = system: CAKI-1
CCRF-CEM = system: CCRF-CEM
COLO 205 = system: COLO 205
HL-60 = system: HL-60
HOP-62 = system: HOP-62
IGROV-1 = system: IGROV-1
LOX IMVI = system: LOX IMVI
OVCAR-3 = system: OVCAR-3
OVCAR-5 = system: OVCAR-5
SF-268 = system: SF-268
SW-620 = system: SW-620
TK-10 = system: TK-10
UACC-62 = system: UACC-62
UO-31 = system: UO-31
HCC 2998 = system: HCC 2998
SR = system: SR

Measured: GI50

O=C1OC(=O)C2C1C1(c3ccccc3)OC2(c2ccccc2)c2c(Br)c(Br)c(Br)c(Br)c21 (stereo unspecified)
inactive: A549 > 100 µM | CAKI-1 > 100 µM | CCRF-CEM > 100 µM | COLO 205 > 100 µM | HL-60 > 100 µM | HOP-62 > 100 µM | IGROV-1 > 100 µM | LOX IMVI > 100 µM | OVCAR-3 > 100 µM | OVCAR-5 > 100 µM | SF-268 > 100 µM | SW-620 > 100 µM | TK-10 > 100 µM | UACC-62 > 100 µM | UO-31 > 100 µM

O=C(O)c1cc(=O)c2[nH]c3ccccc3c2s1
inactive: A549 > 100 µM | CAKI-1 > 100 µM | CCRF-CEM > 100 µM | COLO 205 > 100 µM | HCC 2998 > 100 µM | HL-60 > 100 µM | HOP-62 > 100 µM | IGROV-1 > 100 µM | OVCAR-3 > 100 µM | OVCAR-5 > 100 µM | SF-268 > 100 µM | SW-620 > 100 µM | TK-10 > 100 µM | UACC-62 > 100 µM | UO-31 > 100 µM

Nc1nc(OCc2ccccc2)c2nc[nH]c2n1 [6-O-BENZYLGUANINE]
inactive: A549 73.8 µM | CAKI-1 23.1 µM | CCRF-CEM 66.8 µM | COLO 205 124 µM | HCC 2998 148 µM | HL-60 45.7 µM | HOP-62 51.6 µM | IGROV-1 64.6 µM | LOX IMVI 64.6 µM | OVCAR-3 90.2 µM | OVCAR-5 80 µM | SF-268 70 µM | SW-620 169 µM | TK-10 47.1 µM | UACC-62 44.2 µM | UO-31 25.9 µM

O=C1OC(c2ccccc2)=N/C1=C/NC(CO)C(=O)O (stereo unspecified)
inactive: A549 > 100 µM | CAKI-1 > 100 µM | CCRF-CEM > 100 µM | COLO 205 > 100 µM | HCC 2998 > 100 µM | HL-60 > 100 µM | HOP-62 > 100 µM | IGROV-1 67.1 µM | LOX IMVI > 100 µM | OVCAR-3 > 100 µM | OVCAR-5 > 100 µM | SF-268 > 100 µM | SW-620 > 100 µM | TK-10 > 100 µM | UACC-62 > 100 µM | UO-31 > 100 µM

O=[N+]([O-])c1ccc(C[P+](c2ccccc2)(c2ccccc2)c2ccccc2)cc1
inactive: A549 > 100 µM | CCRF-CEM 80 µM | COLO 205 25.4 µM | HCC 2998 36.1 µM | HL-60 27.2 µM | HOP-62 > 100 µM | IGROV-1 25.4 µM | LOX IMVI 42 µM | OVCAR-3 42.8 µM | OVCAR-5 > 100 µM | SR 38.4 µM | SW-620 88.3 µM | TK-10 56 µM | UACC-62 32.1 µM | UO-31 > 100 µM

COc1ccc2nccc(C3=CCC4CCN(C(=O)c5ccccc5)C3C4)c2c1 (stereo unspecified)
inactive: A549 > 100 µM | CAKI-1 > 100 µM | CCRF-CEM 99.8 µM | COLO 205 > 100 µM | HCC 2998 > 100 µM | HL-60 51.6 µM | HOP-62 > 100 µM | IGROV-1 > 100 µM | LOX IMVI > 100 µM | OVCAR-3 86.9 µM | SF-268 > 100 µM | SW-620 > 100 µM | TK-10 > 100 µM | UACC-62 > 100 µM | UO-31 40.7 µM

COc1ccc2[nH]c3c(c2c1)CCN(C)CC3
inactive: A549 > 100 µM | CAKI-1 > 100 µM | CCRF-CEM > 100 µM | COLO 205 > 100 µM | HCC 2998 > 100 µM | HL-60 71.8 µM | HOP-62 > 100 µM | IGROV-1 > 100 µM | LOX IMVI > 100 µM | OVCAR-3 > 100 µM | OVCAR-5 > 100 µM | SF-268 > 100 µM | SW-620 > 100 µM | TK-10 > 100 µM | UACC-62 > 100 µM

Cc1ccc(S(=O)(=O)Nc2ccccc2C(C)(C)C)cc1
inactive: A549 27.7 µM | CAKI-1 18.7 µM | CCRF-CEM 21.4 µM | HCC 2998 42.8 µM | HL-60 16.8 µM | HOP-62 20 µM | IGROV-1 30.7 µM | OVCAR-3 17.2 µM | OVCAR-5 34.6 µM | SW-620 32.3 µM | TK-10 37.1 µM | UACC-62 16.1 µM | UO-31 18.6 µM

Nc1cc(=O)n(-c2ccccc2)c(=S)n1-c1ccccc1
inactive: A549 > 100 µM | CAKI-1 > 100 µM | CCRF-CEM > 100 µM | COLO 205 > 100 µM | HCC 2998 > 100 µM | HOP-62 > 100 µM | IGROV-1 > 100 µM | LOX IMVI > 100 µM | OVCAR-3 > 100 µM | OVCAR-5 > 100 µM | SF-268 > 100 µM | SW-620 > 100 µM | TK-10 > 100 µM | UACC-62 > 100 µM | UO-31 > 100 µM

CC(=O)O/N=C(/C)c1ccccc1O
inactive: A549 > 100 µM | CAKI-1 > 100 µM | CCRF-CEM > 100 µM | COLO 205 > 100 µM | HCC 2998 > 100 µM | HL-60 > 100 µM | HOP-62 > 100 µM | IGROV-1 > 100 µM | LOX IMVI > 100 µM | OVCAR-3 > 100 µM | OVCAR-5 > 100 µM | SF-268 > 100 µM | SW-620 > 100 µM | TK-10 > 100 µM | UACC-62 > 100 µM | UO-31 > 100 µM

Cc1ccc(-n2c3nc(=O)n(C)c(=O)c-3nc3ccccc32)cc1
inactive: A549 6.43 µM | CAKI-1 21.9 µM | CCRF-CEM 17.3 µM | COLO 205 4.47 µM | HCC 2998 4.61 µM | HL-60 11.1 µM | HOP-62 43.9 µM | IGROV-1 31.6 µM | LOX IMVI 20.4 µM | OVCAR-3 3.24 µM | OVCAR-5 23.8 µM | SF-268 35.7 µM | SW-620 5.75 µM | TK-10 27.2 µM | UACC-62 2.3 µM | UO-31 40.2 µM

CC1(C)CC(=O)C=C(NC(=O)c2ccccc2)C1
inactive: A549 > 100 µM | CAKI-1 > 100 µM | CCRF-CEM > 100 µM | COLO 205 > 100 µM | HCC 2998 > 100 µM | HL-60 > 100 µM | HOP-62 > 100 µM | IGROV-1 > 100 µM | LOX IMVI > 100 µM | OVCAR-3 > 100 µM | SF-268 > 100 µM | SW-620 > 100 µM | TK-10 > 100 µM | UACC-62 > 100 µM | UO-31 > 100 µM

CCOCc1cc(=O)c2c(OC)cc3c(c2o1)CCC(C)(C)O3
inactive: A549 > 100 µM | CCRF-CEM > 100 µM | HCC 2998 > 100 µM | HL-60 > 100 µM | HOP-62 > 100 µM | IGROV-1 > 100 µM | LOX IMVI > 100 µM | OVCAR-3 > 100 µM | OVCAR-5 > 100 µM | SR > 100 µM | SW-620 > 100 µM | TK-10 > 100 µM | UACC-62 > 100 µM | UO-31 > 100 µM
